The subject of assay [1] is MCF7. Put plainly: Antiproliferative activity against human MCF7 cells assessed as reduction in cell viability at 1 uM incubated for 48 hrs by MTT assay relative to control. The assay is classed as functional. The conditions noted are these: MCF7, 48 h.
A further assay relates to HepG2. Briefly: Cytotoxicity against human HepG2 cells assessed as reduction in cell viability incubated for 48 hrs by MTT assay. The conditions noted are these: HepG2, 48 h. The assay is classed as functional, cell-based.
Assay [2] has as its system A549. Briefly: cells. The conditions noted are these: Homo sapiens, A549, 48 h.
Assay [3] deals with MCF7. Put plainly: cells. The conditions noted are these: Homo sapiens, MCF7, 48 h.
The subject of assay [4] is A549. Put plainly: Induction of apoptosis in human A549 cells assessed as necrotic cells at 2 uM incubated for 24 hrs by AnnexinV-FITC/propidium iodide staining-based flow cytometric analysis (reference value: 3.6%). The format is functional.
Assay [5] has as its system A549. Briefly: Induction of apoptosis in human A549 cells assessed as viable cells at 2 uM incubated for 24 hrs by AnnexinV-FITC/propidium iodide staining-based flow cytometric analysis (reference value: 88.1%). The conditions noted are these: A549, 24 h, read-out: Activity. The format is functional.
In assay [6] the test system is A549. Put plainly: Induction of apoptosis in human A549 cells assessed as early apoptotic cells at 2 uM incubated for 24 hrs by AnnexinV-FITC/propidium iodide staining-based flow cytometric analysis (reference value: 4.1%). The assay is classed as functional.
Assay [7] concerns A549. Briefly: Induction of apoptosis in human A549 cells assessed as late apoptotic cells at 2 uM incubated for 24 hrs by AnnexinV-FITC/propidium iodide staining-based flow cytometric analysis (reference value: 4.2%). The format is functional.
In assay [8] the test system is A549. Put plainly: Inhibition of Hsp90-Cdc37 interaction in human A549 cells assessed as decrease in Cdc37 protein level at 5 uM incubated for 6 hrs by immunoprecipitation assay. The format is cell-based.

pIC50: −log10 of the molar value. The source made the active and inactive calls. No cut-off for these calls is given here.

As to `COC(=O)/C=C\c1ccc(OC)c(OC/C=C/COC(=O)[C@]2(C)CC[C@]3(C)CC[C@]4(C)C5=CC=C6C(=CC(=O)C(O)=C6C)[C@]5(C)CC[C@@]4(C)[C@@H]3C2)c1`, in the assay with MCF7 [1], the inhibition at 1 µM is 49.2%.

As for `COC(=O)/C(C#N)=C/c1ccc(OC/C=C/COC(=O)[C@]2(C)CC[C@]3(C)CC[C@]4(C)C5=CC=C6C(=CC(=O)C(O)=C6C)[C@]5(C)CC[C@@]4(C)[C@@H]3C2)c(OC)c1`, the inhibition at 1 µM in the assay on MCF7 [1] came out at 25.7%.

On to `COC(=O)/C(C#N)=C\c1ccc(OC)c(OC/C=C/COC(=O)[C@]2(C)CC[C@]3(C)CC[C@]4(C)C5=CC=C6C(=CC(=O)C(O)=C6C)[C@]5(C)CC[C@@]4(C)[C@@H]3C2)c1`, for which, in the assay with MCF7 [1], the inhibition at 1 µM is 45.6%.

On to `COC(=O)/C(C#N)=C\c1ccc(OC)c(OCCCCOC(=O)[C@]2(C)CC[C@]3(C)CC[C@]4(C)C5=CC=C6C(=CC(=O)C(O)=C6C)[C@]5(C)CC[C@@]4(C)[C@@H]3C2)c1`, for which the inhibition at 1 µM in the assay on MCF7 [1] worked out at 27.4%.

For `COC(=O)/C=C/c1cc(OC)c(OC/C=C/COC(=O)[C@]2(C)CC[C@]3(C)CC[C@]4(C)C5=CC=C6C(=CC(=O)C(O)=C6C)[C@]5(C)CC[C@@]4(C)[C@@H]3C2)c(OC)c1`, the inhibition at 1 µM in the assay with MCF7 [1] was 18%.

On to `COC(=O)/C(C#N)=C/c1ccc(OCCCCOC(=O)[C@]2(C)CC[C@]3(C)CC[C@]4(C)C5=CC=C6C(=CC(=O)C(O)=C6C)[C@]5(C)CC[C@@]4(C)[C@@H]3C2)c(OC)c1`, for which the inhibition at 1 µM with MCF7 [1] came out at 13.8%.

For the compound `COC(=O)/C=C/c1cc(OC)c(OCCOC(=O)[C@]2(C)CC[C@]3(C)CC[C@]4(C)C5=CC=C6C(=CC(=O)C(O)=C6C)[C@]5(C)CC[C@@]4(C)[C@@H]3C2)c(OC)c1`, the pIC50 was 6.05 in the assay with HepG2, 5.97 with A549 [2] and 6.06 in the assay on MCF7 [3]. Also, the inhibition at 1 µM in the assay on MCF7 [1] came to 60.3%.

Consider `COC(=O)/C(C#N)=C\c1cccc(OCCCOC(=O)[C@]2(C)CC[C@]3(C)CC[C@]4(C)C5=CC=C6C(=CC(=O)C(O)=C6C)[C@]5(C)CC[C@@]4(C)[C@@H]3C2)c1`, for which, in the assay on MCF7 [1], the inhibition at 1 µM amounted to 47%.

Take `COC(=O)/C(C#N)=C\c1ccc(OC)c(OCCOC(=O)[C@]2(C)CC[C@]3(C)CC[C@]4(C)C5=CC=C6C(=CC(=O)C(O)=C6C)[C@]5(C)CC[C@@]4(C)[C@@H]3C2)c1`: the pIC50 is 6.43 in the assay with HepG2, 6.34 in the assay with A549 [2] and 6.52 with MCF7 [3]. In addition, the inhibition at 1 µM with MCF7 [1] was determined as 79.7%.

For `COC(=O)/C=C/c1ccc(OCCCCOC(=O)[C@]2(C)CC[C@]3(C)CC[C@]4(C)C5=CC=C6C(=CC(=O)C(O)=C6C)[C@]5(C)CC[C@@]4(C)[C@@H]3C2)c(OC)c1`, in the assay with MCF7 [1], the inhibition at 1 µM was 15.9%.

Regarding `COC(=O)/C(C#N)=C/c1ccc(OCCCOC(=O)[C@]2(C)CC[C@]3(C)CC[C@]4(C)C5=CC=C6C(=CC(=O)C(O)=C6C)[C@]5(C)CC[C@@]4(C)[C@@H]3C2)c(C)c1`, the inhibition at 1 µM with MCF7 [1] was 21.9%.

In the case of `COC(=O)/C(C#N)=C/c1ccc(OCCCOC(=O)[C@]2(C)CC[C@]3(C)CC[C@]4(C)C5=CC=C6C(=CC(=O)C(O)=C6C)[C@]5(C)CC[C@@]4(C)[C@@H]3C2)cc1`, the inhibition at 1 µM in the assay with MCF7 [1] is 22.1%.

Regarding `COC(=O)/C=C/c1ccc(OCCOC(=O)[C@]2(C)CC[C@]3(C)CC[C@]4(C)C5=CC=C6C(=CC(=O)C(O)=C6C)[C@]5(C)CC[C@@]4(C)[C@@H]3C2)c(OC)c1`, in the assay on MCF7 [1], the inhibition at 1 µM amounted to 27.7%.

As to `COC(=O)/C(C#N)=C/c1ccc(OCCCOC(=O)[C@]2(C)CC[C@]3(C)CC[C@]4(C)C5=CC=C6C(=CC(=O)C(O)=C6C)[C@]5(C)CC[C@@]4(C)[C@@H]3C2)cc1C`, in the assay on MCF7 [1], the inhibition at 1 µM was determined as 19.8%.

As for `COC(=O)/C=C/c1ccc(OC/C=C/COC(=O)[C@]2(C)CC[C@]3(C)CC[C@]4(C)C5=CC=C6C(=CC(=O)C(O)=C6C)[C@]5(C)CC[C@@]4(C)[C@@H]3C2)cc1`, the inhibition at 1 µM in the assay with MCF7 [1] amounted to 5.29%.

As to `COC(=O)/C=C\c1cccc(OCCCOC(=O)[C@]2(C)CC[C@]3(C)CC[C@]4(C)C5=CC=C6C(=CC(=O)C(O)=C6C)[C@]5(C)CC[C@@]4(C)[C@@H]3C2)c1`, in the assay on MCF7 [1], the inhibition at 1 µM stood at 33%.

For `COC(=O)/C(C#N)=C/c1ccc(OCCCOC(=O)[C@]2(C)CC[C@]3(C)CC[C@]4(C)C5=CC=C6C(=CC(=O)C(O)=C6C)[C@]5(C)CC[C@@]4(C)[C@@H]3C2)cc1F`, the inhibition at 1 µM with MCF7 [1] was 8.36%.

On to `COC(=O)/C=C/c1ccc(OCCCOC(=O)[C@]2(C)CC[C@]3(C)CC[C@]4(C)C5=CC=C6C(=CC(=O)C(O)=C6C)[C@]5(C)CC[C@@]4(C)[C@@H]3C2)cc1`, for which the inhibition at 1 µM in the assay on MCF7 [1] came out at 50.5%.

Take `COC(=O)/C(C#N)=C/c1ccc(OCCCOC(=O)[C@]2(C)CC[C@]3(C)CC[C@]4(C)C5=CC=C6C(=CC(=O)C(O)=C6C)[C@]5(C)CC[C@@]4(C)[C@@H]3C2)c(OC)c1`: the pIC50 in the assay with HepG2 was 6.12; in the assay on A549 [2], 6.18; in the assay with MCF7 [3], 6.19. Moreover, the inhibition at 1 µM with MCF7 [1] came out at 66.5%.

In the case of `COC(=O)/C=C/c1cc(OC)c(OCCCOC(=O)[C@]2(C)CC[C@]3(C)CC[C@]4(C)C5=CC=C6C(=CC(=O)C(O)=C6C)[C@]5(C)CC[C@@]4(C)[C@@H]3C2)c(OC)c1`, the inhibition at 1 µM in the assay with MCF7 [1] is 8.61%.

On to `COC(=O)/C(C#N)=C/c1ccc(OCCCOC(=O)[C@]2(C)CC[C@]3(C)CC[C@]4(C)C5=CC=C6C(=CC(=O)C(O)=C6C)[C@]5(C)CC[C@@]4(C)[C@@H]3C2)c(F)c1`, for which the inhibition at 1 µM in the assay with MCF7 [1] was 18.8%.

Take `COC(=O)/C(C#N)=C/c1ccc(OCCCOC(=O)[C@]2(C)CC[C@]3(C)CC[C@]4(C)C5=CC=C6C(=CC(=O)C(O)=C6C)[C@]5(C)CC[C@@]4(C)[C@@H]3C2)cc1OC`: the inhibition at 1 µM in the assay on MCF7 [1] is 11%.

In the case of `COC(=O)/C(C#N)=C/c1ccc(OCCOC(=O)[C@]2(C)CC[C@]3(C)CC[C@]4(C)C5=CC=C6C(=CC(=O)C(O)=C6C)[C@]5(C)CC[C@@]4(C)[C@@H]3C2)c(OC)c1`, in the assay on MCF7 [1], the inhibition at 1 µM amounted to 59.9%.

With `COC(=O)/C=C\c1ccc(OC)c(OCCCOC(=O)[C@]2(C)CC[C@]3(C)CC[C@]4(C)C5=CC=C6C(=CC(=O)C(O)=C6C)[C@]5(C)CC[C@@]4(C)[C@@H]3C2)c1`, the pIC50 was 6.19 with HepG2, 6.15 in the assay on A549 [2] and 6.17 in the assay on MCF7 [3]. Further, in the assay on MCF7 [1], the inhibition at 1 µM came out at 67.4%.

In the case of `COC(=O)[C@]12CCC(C)(C)C[C@H]1[C@H]1C(=O)C=C3[C@@]4(C)C=C(C#N)C(=O)C(C)(C)[C@@H]4CC[C@@]3(C)[C@]1(C)CC2` [BARDOXOLONE METHYL], the values for the negative-log IC50 (pIC50) in the assay with HepG2, in the assay on A549 [2] and in the assay on MCF7 [3] were 6.59, 6.44 and 6.46, respectively.

In the case of `CC1=C(O)C(=O)C=C2C1=CC=C1[C@@]2(C)CC[C@@]2(C)[C@@H]3C[C@](C)(C(=O)O)CC[C@]3(C)CC[C@]12C` [CELASTROL], the values for the Activity with A549 [4], in the assay on A549 [6] and in the assay with A549 [7] were 4.8%, 14.9% and 16.1%, respectively. The pIC50 in the assay on HepG2 was 5.88; in the assay on A549 [2], 5.89; in the assay with MCF7 [3], 5.97. Besides, the viability at 2 µM in the assay on A549 [5] came out at 64.1%. Moreover, the inhibition at 1 µM with MCF7 [1] amounted to 60.2%. In addition, the inhibition entry in the assay with A549 [8] was “Active”.

With `COC(=O)/C=C/c1ccc(OC/C=C/COC(=O)[C@]2(C)CC[C@]3(C)CC[C@]4(C)C5=CC=C6C(=CC(=O)C(O)=C6C)[C@]5(C)CC[C@@]4(C)[C@@H]3C2)c(OC)c1`, in the assay with MCF7 [1], the inhibition at 1 µM came to 32.5%.

On to `COC(=O)/C=C/c1ccc(OCCOC(=O)[C@]2(C)CC[C@]3(C)CC[C@]4(C)C5=CC=C6C(=CC(=O)C(O)=C6C)[C@]5(C)CC[C@@]4(C)[C@@H]3C2)cc1`, for which the pIC50 in the assay with HepG2 is 6.22; in the assay with A549 [2], 6.22; with MCF7 [3], 6.17. In the assay on MCF7 [1], the inhibition at 1 µM came out at 63.9%.

Regarding `COC(=O)/C=C/c1cc(OC)c(OCCCCOC(=O)[C@]2(C)CC[C@]3(C)CC[C@]4(C)C5=CC=C6C(=CC(=O)C(O)=C6C)[C@]5(C)CC[C@@]4(C)[C@@H]3C2)c(OC)c1`, the inhibition at 1 µM in the assay with MCF7 [1] is 7.52%.

As to `COC(=O)/C=C\c1ccc(OC)c(OCCCCOC(=O)[C@]2(C)CC[C@]3(C)CC[C@]4(C)C5=CC=C6C(=CC(=O)C(O)=C6C)[C@]5(C)CC[C@@]4(C)[C@@H]3C2)c1`, the inhibition at 1 µM in the assay on MCF7 [1] worked out at 40.1%.

For `COC(=O)/C=C/c1ccc(OCCCCOC(=O)[C@]2(C)CC[C@]3(C)CC[C@]4(C)C5=CC=C6C(=CC(=O)C(O)=C6C)[C@]5(C)CC[C@@]4(C)[C@@H]3C2)cc1`, the inhibition at 1 µM in the assay with MCF7 [1] is 0.94%.

With `COC(=O)/C=C/c1ccc(OCCCOC(=O)[C@]2(C)CC[C@]3(C)CC[C@]4(C)C5=CC=C6C(=CC(=O)C(O)=C6C)[C@]5(C)CC[C@@]4(C)[C@@H]3C2)c(OC)c1`, the pIC50 in the assay with HepG2 was 6.28; with A549 [2] it was 6.25; in the assay with MCF7 [3], 6.35. For the same compound, in the assay on MCF7 [1], the inhibition at 1 µM was found to be 78.5%.

With `COC(=O)/C(C#N)=C\c1ccc(OC)c(OCCCOC(=O)[C@]2(C)CC[C@]3(C)CC[C@]4(C)C5=CC=C6C(=CC(=O)C(O)=C6C)[C@]5(C)CC[C@@]4(C)[C@@H]3C2)c1`, the values for the pIC50 in the assay on HepG2, in the assay with A549 [2] and in the assay with MCF7 [3] were 6.15, 6.11 and 6.19, respectively. The inhibition at 1 µM with MCF7 [1] was 65.9%.

For the origin of these results see ChEMBL document CHEMBL4393691, “Design, synthesis and antitumor evaluation of novel celastrol derivatives” (Eur J Med Chem, 2019).
